Experimental findings from patent US8071555B2, “Protective skin care peptides” (Helix BioMedix Inc., priority 2007, dated 2011) are described below.

“And” between values parts separate entries of the source, which are not always exact repeats. Equal entries are not always repeated. Ends that are not written are not given here. Peptide text beside a SMILES is read from it. * marks the point of attachment. Decanoyl = CCCCCCCCCC(=O)*

For one data set, the system named is trypsin. The data set is described as follows: Peptide degradation by trypsin with or without protease inhibitor (LC/MS). In kind it is in vitro ADME. The note with it: for Survival: Trypsin 25 μg/mL, peptide 1 mg/mL. On the procedure: (§1) Peptides of synthetic origin and LL-37 were used in the protease processing experiments at a concentration of 1-2 mg/mL in 0.5M MOPS pH 8.5/0.5M NaCl final buffer concentration. Proteases were used at a concentration of 0.020-0.050 mg/mL.
(§2) Experiments were run in pairs, one with protease inhibitor and one without a protease inhibitor. Liquid chromatography/mass spectrometry (LC/MS) spectra were collected at approximately 1-minute, 1-hour, 4-hour and 24-hour time points from the time of adding protease to the peptide (time zero). LC/MS spectra were collected using a standard reverse phase gradient starting at 5% acetonitrile and ramping up to 65% acetonitrile in 25 minutes.
(§3) The proteases employed in the study were initially dissolved in a 1M NaCl solution, while the peptides were dissolved in 1M MOPS buffer at pH 8.5. The solutions were equilibrated to 37° C. and then mixed at a ratio of 1:1 to start each experiment. Lower buffer concentrations were also used (0.1M MOPS pH 8.5 and 0.2M NaCl). Protease inhibitors were tested at several different concentrations (low and high from 0.02 mg/mL to 40 mg/mL) against a given protease.
(§4) The mass spectrometer used in these studies has a limit of detection below which the specific molecular weight of a molecule cannot be identified from the TIC trace. In these below-detection situations, it was assumed that the tested peptide was completely degraded.
(§5) A series of experiments were performed employing the above-described methodology to determine the utility of the invention as it regards a wider range of proteases, peptides and protease inhibitors. If, at any specific time-point, there was no detectable parent peptide (i.e., the absence of non-degraded peptide), then that time-point was documented as the time required for peptide degradation.

The next data set concerns the target T1, chymotrypsin (Bos taurus, UniProt P00766).
T1 construct: purchased Sigma-Aldrich
The data set is described as follows: Peptide degradation by chymotrypsin with or without protease inhibitor (LC/MS). In kind it is in vitro ADME. Conditions: peptide 1 mg/mL. Here is the method:
as §1, §2, §3, §4, §5

The target of the next data set is T2, plasmin (Homo sapiens, UniProt P00747).
T2 construct: purchased Sigma-Aldrich
The data set is described as follows: Peptide degradation by plasmin with or without protease inhibitor (LC/MS). In kind it is in vitro ADME. Conditions: for Survival: peptide 1 mg/mL. On the procedure:
as §1, §2, §3, §4, §5

The test system of another data set is elastase. The data set is described as follows: Peptide degradation by elastase with or without protease inhibitor (LC/MS). In kind it is in vitro ADME. Conditions: Elastase 25 μg/mL, peptide 1 mg/mL. Here is the method:
as §1, §2, §3, §4, §5

The next data set concerns kallikrein. The data set is described as follows: Peptide degradation by kallikrein with or without protease inhibitor (LC/MS). In kind it is in vitro ADME. Conditions: Kallikrein 25 μg/mL, peptide 1 mg/mL. Here is the method: as §1, §2, §3
The mass spectrometer used in these studies has a limit of detection below which the specific molecular weight of a molecule cannot be identified from the TIC trace. In these below-detection situations, it was assumed that the tested peptide was completely degraded. […]

The test system of data set [1] is IL-6 expression. The data set is described as follows: UVB-induced IL-6 expression in human skin epithelial cells (ELISA). The note with it: for reduction of IL-6 levels: skin epithelial cells treated with UVB; for repression of UVB-induced IL-6 expression: skin epithelial cells, peptide 40 μg/mL, 24 hours post UVB. In kind it is cell-based. On the procedure: (§6) Human skin epithelial cells (ATCC CRL-2592), keratinocytes (ATCC CRL-2404) and skin fibroblasts (ATCC CRL-7481) were employed in the study. Cells were seeded into 6-well plates and allowed to grow to >95% confluence in Dulbecco's modified Eagle's medium (DMEM; 4 mM L-glutamine, 4.5 g/L glucose) adjusted to contain 1.5 g/L sodium bicarbonate and supplemented with 10% fetal bovine serum (FBS). For keratinocytes, cells were grown in keratinocyte growth media (without serum) supplemented with 5 ng/mL human recombinant epithelial growth factor (EGF; Invitrogen, Grand Island, N.Y.). After the cell monolayer reached >95% confluence, the cells were serum-starved or EGF-starved for 24 hours in complete medium without serum. UVA or UVB was generated using a UVLMS lamp (4-W model, 3UV assembly; Upland, Calif.) with the irradiation wavelength set at 365 or 302 nm, respectively. The UV lamp was placed 15 cm above the tissue culture plate. Before UV treatment, the tissue culture media was replaced with PBS, after which the cells were placed under the UVB lamp (450 μW/cm^2, measured using a radiometer) for 35 seconds (epithelial cells and fibroblasts) or 25 seconds (keratinocytes). UVA treatment was conducted (500 μW/cm^2) for 30 seconds with fibroblasts. After UV treatment, PBS was immediately replaced with complete medium (without serum or EGF) containing either no peptide or peptide at a specified concentration, and the plates were incubated at 37° C., 5% CO2 for 15-24 hours. The cell media was then collected and spun down at 15000 rpm for 2 minutes to remove cell debris. IL-6 and MMP-1 levels in the media were measured, respectively, using human IL-6 (DIACLONE, Stamford, Conn.) and MMP-1 (Calbiochem, San Diego, Calif.) ELISA kits according to manufacturers' instructions. These measurements served as indicators of cell inflammatory activity in response to UV exposure.
All the tetrapeptides listed in Table I were subjected to a screening test at 40 μg/mL for potential down-regulation of this response (data not shown).
P1422 (SEQ ID NO:1) reduced IL-6 levels by 19% and 25% at 10 and 20 μg/mL, respectively; and P1423 (SEQ ID NO:2) reduced IL-6 levels by 10% and 20% at 10 and 20 μg/mL, respectively.
In general terms: ELISA stands for enzyme-linked immunosorbent assay.

For data set [2], the system named is MMP-1 expression. The data set is described as follows: UVA-induced MMP-1 expression in human skin fibroblasts (ELISA). In kind it is cell-based. Conditions: UVA 500 μW/cm^2, peptide 10 μg/mL. Here is the method:
as §6, with “UVA treatment was conducted (500 μW/cm^2) for 30 seconds with fibroblasts. After UV treatment, PBS was immediately replaced with complete medium (without serum or EGF) containing either no peptide or peptide at a specified concentration, and the plates were incubated at 37° C., 5% CO2 for 15-24 hours. The cell media was then collected and spun down at 15000 rpm for 2 minutes to remove cell debris.” left out, “These measurements served as indicators of cell inflammatory activity in response to UV exposure.” left out

Data set [3] has as its system IL-6 expression. The data set is described as follows: UVB-induced IL-6 expression in human skin fibroblasts (ELISA). In kind it is cell-based. The note with it: human fibroblasts after UVB. Here is the method:
as §6
Such peptide-mediated IL-6 down-regulation was also evident in human fibroblasts after exposure to UVB.

Data set [4] relates to IL-6 expression. The data set is described as follows: UVB-induced IL-6 expression in human keratinocytes (ELISA). Conditions: UVB-treated human keratinocytes; peptide 10 μg/mL. In kind it is cell-based. On the procedure: as §6, with “UVA treatment was conducted (500 μW/cm^2) for 30 seconds with fibroblasts. After UV treatment, PBS was immediately replaced with complete medium (without serum or EGF) containing either no peptide or peptide at a specified concentration, and the plates were incubated at 37° C., 5% CO2 for 15-24 hours. The cell media was then collected and spun down at 15000 rpm for 2 minutes to remove cell debris.” left out, “These measurements served as indicators of cell inflammatory activity in response to UV exposure.” left out

Data set [5] has as its system MMP-1 expression. The data set is described as follows: MMP-1 induction in fibroblasts incubated in media conditioned by UVB-treated keratinocytes (ELISA). In kind it is cell-based, human. The note with it: peptide 10 μg/mL. On the procedure:
as §6, with “UVA treatment was conducted (500 μW/cm^2) for 30 seconds with fibroblasts. After UV treatment, PBS was immediately replaced with complete medium (without serum or EGF) containing either no peptide or peptide at a specified concentration, and the plates were incubated at 37° C., 5% CO2 for 15-24 hours. The cell media was then collected and spun down at 15000 rpm for 2 minutes to remove cell debris.” left out, “These measurements served as indicators of cell inflammatory activity in response to UV exposure.” left out

T2 sequence (P00747 581-810 limits assumed, species assumed): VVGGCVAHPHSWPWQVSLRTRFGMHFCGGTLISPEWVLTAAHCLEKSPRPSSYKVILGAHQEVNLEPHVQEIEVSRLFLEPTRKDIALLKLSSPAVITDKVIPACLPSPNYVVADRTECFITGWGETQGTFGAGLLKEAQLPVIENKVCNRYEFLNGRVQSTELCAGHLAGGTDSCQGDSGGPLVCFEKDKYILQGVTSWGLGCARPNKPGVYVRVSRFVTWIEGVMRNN
T2 sequence (P00747 97-580 limits assumed, species assumed): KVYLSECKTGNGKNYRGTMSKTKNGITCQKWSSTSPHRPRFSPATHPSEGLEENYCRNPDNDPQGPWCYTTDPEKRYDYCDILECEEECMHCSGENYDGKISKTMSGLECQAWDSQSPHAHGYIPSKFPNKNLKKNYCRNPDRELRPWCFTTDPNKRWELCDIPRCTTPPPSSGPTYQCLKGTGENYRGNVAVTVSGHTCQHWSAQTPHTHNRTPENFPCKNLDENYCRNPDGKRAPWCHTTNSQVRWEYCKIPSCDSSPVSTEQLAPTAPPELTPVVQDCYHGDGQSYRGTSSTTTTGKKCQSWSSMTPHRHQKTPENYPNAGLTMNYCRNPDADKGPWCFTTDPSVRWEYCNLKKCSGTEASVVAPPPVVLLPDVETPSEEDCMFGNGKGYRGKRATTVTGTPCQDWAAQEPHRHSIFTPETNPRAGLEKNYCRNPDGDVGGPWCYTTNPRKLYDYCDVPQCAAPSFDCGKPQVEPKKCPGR

Regarding `CCCCCCCCCC(=O)N[C@@H](CCCCN)C(=O)N[C@@H](Cc1ccccc1)C(=O)N[C@@H](CCCCN)C(=O)N[C@@H](Cc1c[nH]c2ccccc12)C(=O)N1CCC[C@H]1C(=O)N[C@@H](Cc1c[nH]c2ccccc12)C(N)=O` [HB1345, decanoyl-KFKWPW-NH2] (Decanoyl-KFKWPW-NH2), the Survival was more than 24 h in the data set with trypsin (aprotinin 0.02 mg/mL) and less than 1 h with trypsin (no protease inhibitor).
As for `CC[C@H](C)[C@H](NC(=O)[C@H](CCCCN)NC(=O)[C@H](CCC(=O)O)NC(=O)[C@H](CCCCN)NC(=O)[C@H](CO)NC(=O)[C@H](CCCCN)NC(=O)[C@H](CCCNC(=N)N)NC(=O)[C@H](Cc1ccccc1)NC(=O)[C@H](Cc1ccccc1)NC(=O)[C@H](CC(=O)O)NC(=O)CNC(=O)[C@H](CC(C)C)NC(=O)[C@@H](N)CC(C)C)C(=O)NCC(=O)N[C@@H](CCCCN)C(=O)N[C@@H](CCC(=O)O)C(=O)N[C@@H](Cc1ccccc1)C(=O)N[C@@H](CCCCN)C(=O)N[C@@H](CCCNC(=N)N)C(=O)N[C@H](C(=O)N[C@H](C(=O)N[C@@H](CCC(N)=O)C(=O)N[C@@H](CCCNC(=N)N)C(=O)N[C@H](C(=O)N[C@@H](CCCCN)C(=O)N[C@@H](CC(=O)O)C(=O)N[C@@H](Cc1ccccc1)C(=O)N[C@@H](CC(C)C)C(=O)N[C@@H](CCCNC(=N)N)C(=O)N[C@@H](CC(N)=O)C(=O)N[C@@H](CC(C)C)C(=O)N[C@H](C(=O)N1CCC[C@H]1C(=O)N[C@@H](CCCNC(=N)N)C(=O)N[C@H](C(=O)N[C@@H](CCC(=O)O)C(=O)N[C@@H](CO)C(=O)O)[C@@H](C)O)C(C)C)[C@@H](C)CC)C(C)C)[C@@H](C)CC` [LL-37], the Survival at chymotrypsin (Chymotrypsin 22 μg/mL, no protease inhibitor) was less than 1 h; on chymotrypsin (Chymotrypsin 22 μg/mL, tranexamic acid 9 mg/mL), less than 1 h; at plasmin (Plasmin 22 μg/mL, no protease inhibitor), less than 1 h; at plasmin (Plasmin 22 μg/mL, no protease inhibitor, Expt. 38) it was less than 0.75 h; on plasmin (Plasmin 22 μg/mL, tranexamic acid 9 mg/mL) it was less than 4 h. Also, the parent peptide detection result at plasmin was “undetectable”.
In the case of “FAKALKALLKALKAL-NH2 [HB64, FAKALKALLKALKAL-NH2]”, the Survival with elastase (aprotinin 0.02 mg/mL) was less than 1 h; in the data set on elastase (no protease inhibitor), less than 1 h; with elastase (tranexamic acid 0.80 mg/mL), less than 1 h; on chymotrypsin (Chymotrypsin 25 μg/mL, aprotinin 0.02 mg/mL), less than 24 h; on chymotrypsin (Chymotrypsin 25 μg/mL, no protease inhibitor) it was less than 1 h; on plasmin (Plasmin 20 μg/mL, no protease inhibitor), less than 4 h. Besides, the Survival was less than 24 h at plasmin (Plasmin 22 μg/mL, tranexamic acid 40 mg/mL); <4 h and <6 h at plasmin (Plasmin 25 μg/mL, no protease inhibitor); less than 4 h at plasmin (Plasmin 46 μg/mL, no protease inhibitor); less than 6 h at plasmin (Plasmin 50 μg/mL, tranexamic acid 10 mg/mL); less than 24 h with kallikrein (no protease inhibitor); less than 24 h in the data set with kallikrein (tranexamic acid 0.80 mg/mL). Further, in the data set on trypsin, the “parent peak in TIC traces” value is recorded as “reduced over time”. At plasmin (plasmin plus tranexamic acid vs plasmin alone), the “amount of parental peptide by XIC trace compared to plasmin alone” value was “five-times greater”. In addition, the “protection of peptide (TIC and XIC traces)” value on plasmin (plasmin plus tranexamic acid, 4-hour exposure) is “protected from plasmin-mediated proteolysis”. Further, the “degradation of peptide (TIC and XIC traces)” value on plasmin (plasmin, no inhibitor, 4-hour exposure) is recorded as “most of the HB64 peptide was degraded”.
For FALLKL-NH2 [HB168], the Survival in the data set on trypsin (aprotinin 0.02 mg/mL) was more than 24 h; in the data set on trypsin (no protease inhibitor), less than 1 h.
For “PQEI-NH2 [P1423, tetrapeptide amidated at the carboxy terminus]”, the “reduction of IL-6 levels” value with IL-6 expression [1] (peptide 10 μg/mL) came out at 10%; in the data set with IL-6 expression [1] (peptide 20 μg/mL) it was 20%. Moreover, the “repression of UVB-induced IL-6 expression” value in the data set with IL-6 expression [1] was “reproducible repression”. Moreover, in the data set on MMP-1 expression [2], the “down-regulation of UVA-induced MMP-1 expression” value is reported as “able to down-regulate”. The “reduction of IL-6 levels compared to control” value in the data set with IL-6 expression [3] (peptide 2 μg/mL) came to 24%; in the data set with IL-6 expression [3] (peptide 5 μg/mL) it was 30%; with IL-6 expression [3] (peptide 10 μg/mL), 48%. In addition, the “down-regulation of IL-6 expression” value with IL-6 expression [4] is “down-regulate IL-6 expression”. For the same compound, the MMP-1 induction result in the data set with MMP-1 expression [5] was “far less MMP-1 induction”.
For the compound “PQEK-NH2 [P1422, tetrapeptide amidated at the carboxy terminus]”, the “reduction of IL-6 levels” value with IL-6 expression [1] (peptide 10 μg/mL) was 19%; with IL-6 expression [1] (peptide 20 μg/mL), 25%. Moreover, the “repression of UVB-induced IL-6 expression” value in the data set with IL-6 expression [1] is recorded as “reproducible repression”. In addition, the “down-regulation of UVA-induced MMP-1 expression” value in the data set with MMP-1 expression [2] is reported as “able to down-regulate”. For the same compound, the “reduction of IL-6 levels compared to control” value in the data set with IL-6 expression [3] (peptide 10 μg/mL) is 30%. In the data set with IL-6 expression [3] (peptide concentrations lower than 10 μg/mL), the “reduction of IL-6” value is given as “no significant reduction”. Moreover, the “down-regulation of IL-6 expression” value in the data set on IL-6 expression [4] is given as “down-regulate IL-6 expression”. Moreover, the MMP-1 induction result in the data set with MMP-1 expression [5] is “far less MMP-1 induction”.
